Patent EP0364581A1, “METHOD OF STERILIZING PLANT POLLEN” (VSESOJUZNY NAUCHNO-ISSLEDOVATELSKY INST. SELSKOKHOZYAISTV. …, priority 1988, dated 1989)
Like-named read-outs stand apart in the source and are kept apart here.

Experiments:
[1] = test system: Sommerweizens Sorte Rodina; assay: field test of gametocidal activity (sterilisation of anthers); assay type: in vivo, Sommerweizen; details: V. und VI. Periode, 1%ige wäßrige Emulsion, 6 kg/ha; for Prozentsatz des Ansetzens der Körner bei freier Bestäubung: control = 100
Description: (§1) Die gametozide Aktivität der erfindungsgemäßen Sterilisationsmittel war in Feldversuch in verschiedenen bodenklimatischen Zonen mit Teilstücken von 10 m^2 Größe in drei-- bis viermaliger Wiederholung nachgewiesen. Jedes Sterilisationsmittel wurde mindestens 5 Jahre lang geprüft.
(§2) Die Entwicklung der Perioden der Organogenese wird zytologisch überwacht. Die Behandlung von Pflanzen mit dem Sterilisationsmittel erfolgt am Anfang der fünften Periode der Organogenese nach Kupermann.
(§3) Mit dem Ahrenschieben verwirklicht man die Isolierung von Hauptähren und anderen Stockwerken in Pergamentbeuteln. Bei Weizen und Tritikale werden Einzelisolatoren verwendet. Bei Roggen schließt man je 1 Ähre von 5 bis 7 verschiedenen nebeneinander befindlichen Pflanzen in einen gemeinsamen Isolator ein. Bei Hirse wird jede Rispe getrennt isoliert. Der Sterilitätsprozentsatz (X) für Weizen, Roggen, Tritikale und Hirse wird nach der Formel [formula]
(§4) Samen von unbehandelten Kontrollpflanzen ermittelt.
(§5) Die Kornzahl in nicht isolierten Ähren von Kontrollpflanzen wird bedingt für 100% Ansetzen bei freier Bestäubung angenommen.
(§6) Um zuverlässige Angaben zu erhalten, verwendet man 20 bis 25 Isolatoren jeder Wiederholung für Weizen und Tritikale, 10 bis 15 Isolatoren jeder Wiederholung für Roggen und Hirse.
Pflanzen des Sommerweizens Sorte Rodina werden in der V. und VI. Periode der Organogenese (nach Kupermann) mit einer l%igen wäßrigen Emulsion von Ammoniumsalz der 2-Methyl-3-zyklohexenkarbonsäure, Phthalsäuredihexylester, Phthalsäurediisobutylester behandelt. Die Emulsion enthält 0,01 Masse% Dodezysulfat und 0,1 Masse% C12-C14--Kalziumalkylbenzolsulfonat. Der Verbrauch an Präparat beträgt 6 kg/ha. Als Kontrolle dienen Pflanzen, behandelt mit einem Verdünner ohne Sterilisationsmittel.

[2] = test system: Sonnenblume Linie BK-373; assay: field test of chemical sterilisation of sunflower pollen; assay type: in vivo
Description: as §1, §2
(§7) Zur Kontrolle der chemischen Sterilisation des Sonnenblumenpollens werden für jede Verbindung 45 behandelte Pflanzen jeder Wiederholung benutzt, wobei 15 Pflanzen zwecks Selbsbestäubung isoliert werden, Blutenkörbchen von 15 anderen Pflanzen mit einem Pollengemisch, gesammelt von 20 bis 25 behandelten isolierten Körbchen, bestäubt werden, und 15 Pflanzen für freie Bestäubung gelassen werden, damit das Ansetzen von Achänen mit dem Pollen der Vaterform kontrolliert werden kann.
(§8) Man beurteilt die Pollensterilität von Pflanzen der Sonnenblume nach der Pollenfertilität und -keimfahigkeit, nach den morphologischen Besonderheiten von Spermien und nach der Fähigkeit von Achänen zum Ansetzen bei der Bestäubung der behandelten isolierten Pflanzen mit dem Pollen der unbehandelten väterlischen Form. Die Läbensfähigkeit der Eizelle wird nach der Samenbildung bei behandelten Pflanzen bei freier Bestäubung der väterlichen Form bestimmt.
Die Sonnenblume Linie BK-373 werden mit einer 0,2%igen wäßrigen Emulsion von Phthalsäuredibutylester, 0,1%igen wäßrigen Emulsion von Kaliumsalz der 2-Methyl-3-zyklohexylkar- bonsäuremethylester und 0,2%igen wäßrigen Emulsion von Phthalsäurediäthylester behandelt. Die Emulsion enthält 0,01 Masse% Dodezylsulfat und 0,1 Masse% C12-C14-Kalziumalkylbenzolsulfonat.
(§9) Als Kontrolle in allen Fällen dienen Pflanzen, behandelt mit einem Verdünner ohne Sterilisationsmittel.

[3] = test system: diploidem Roggen Sorte Belorusskaya 23; assay: field test of gametocidal activity (sterilisation of anthers); assay type: in vivo; details: V. und VI. Periode, 1%ige wäßrige Emulsion, 6 kg/ha; for Prozentsatz des Ansetzens der Körner bei freier Bestäubung: control = 100
Description: as §1, §2, §3, §4, §5, §6
Pflanzen von diploidem Roggen Sorte Belorusskaya 23 werden in der V. und VI. Periode der Organogenese (nach Kupermann) mit einer 1%igen wäßrigen Emulsion von Phthalsäuredibutylester, Kaliumsalz der 2-Methyl-3-zyklohexenkarbonsäure behandelt. Die Emulsion enthält 0,01 Masse% Dodezylsulfat, und 0,1 Masse% C12-C14-Kalziumalkylbenzolsulfonat.
Der Verbrauch an Präparat beträgt 6 kg/ha. Als Kontrolle dienen Pflanzen, behandelt mit einem Verdünner ohne Sterilisationsmittel.

[4] = test system: Sonnenblume Linie VK-119; assay: field test of chemical sterilisation of sunflower pollen; assay type: in vivo; details: Linie BK-119
Description: as §1, §2, §7, §8
(§10) Pflanzen der Sonnenblume Sorte Peredovik werden in der V. Periode der Organogenese (nach Kupermann) mit einer 0,5%igen wäßrigen Emulsion von Phthalsäuredibutylester, Phthalsäurediäthylester, Kaliumsalz der 2-Methyl-3-zyklohexenkarbonsäu- re, Natriumsalz der 2-Methyl-3-zyklohexenkarbonsäure sowie mit einer 0,05%igen wäßrigen Emulsion von 2-Methyl-3-zyklo- hexenkarbonsäuremethylester behandelt. Die Emulsion enthält 0,01 Masse% Dimethylsulfoxid und 0,1 Masse% C12-C14-Kalziumalkylbenzolsulfonat. Die Sonnenblume Linie VK-119 werden mit einer 0,2%igen wäßrigen Emulsion von Phthalsäuredibutylester, 0,1%igen wäßrigen Emulsion von Phthalsäurediäthylester, Kaliumsalz der 2-Methyl-3-zyklohexenkarbonsäure, 1%igen wäßrigen Emulsion von Natriumsalz der. 2-Methyl-3-zyklohexen- karbonsäure und 0,01%igen wäßrigen Emulsion von 2-Methyl--3-zyklohexenkarbonsäuremethylester behandelt. Die Emulsion enthält 0,01 Masse% Dimethylformamid und 0,1 Masse% C12-C14--Kalziumalkylbenzolsulfonat.
as §9

[5] = test system: Sonnenblume Sorte Peredovik; assay: as above; assay type: in vivo; details: V. Periode
Description: as §1, §2, §7, §8
as §10, with “Periode der Organogenese (nach Kupermann) mit einer 0,5%igen wäßrigen Emulsion von Phthalsäuredibutylester, Phthalsäurediäthylester, Kaliumsalz der 2-Methyl-3-zyklohexenkarbonsäu- re, Natriumsalz der 2-Methyl-3-zyklohexenkarbonsäure sowie mit einer 0,05%igen wäßrigen Emulsion von 2-Methyl-3-zyklo- hexenkarbonsäuremethylester behandelt.” left out
as §9

[6] = acute toxicity in animals; design: species or system weiße Ratten; details: rat, in vivo
Description: (§11) Alle erfindungsgemäßen Karbonsäurederivate, die als Sterilisationsmittel zur Verwendung kommen, waren auf die akute Toxizität im Tierversuch geprüft. Die Prüfergebnisse haben ergeben, daß die angegebenen Verbindungen von schwacher oder mittlerer Toxizität sind.

[7] = acute toxicity in animals; details: mouse, in vivo, po; weiße Mäuse; einmalige Einführung in den Magen
Description: as §11

[8] = Präparat 0,01 Masse%, 0,06 kg/ha
[9] = Präparat 0,05 Masse%, 0,3 kg/ha

CC1C=CCCC1C(=O)O.N (stereo not drawn) [Beispiel 34, Ammoniumsalz der 2-Methyl-3-zyklohexenkarbonsäure]
Kornzahl der Ähre bei freier Bestäubung [1]: 30,8 | Kornzahl der Ähre im Isolator [1]: 0,0 | Prozentsatz der Sterilität [1]: 100,0% | Prozentsatz des Ansetzens der Körner bei freier Bestäubung [1]: 84,1%

CCOC(=O)c1ccccc1C(=O)OCC [Beispiel 116, Phthalsäurediäthylester]
Ansetzen der Achänen bei freier Bestäubung ([2]; Präparat 0,2 Masse%, 1,2 kg/ha): 64,6 | Prozentsatz der Sterilität ([2]; Präparat 0,2 Masse%, 1,2 kg/ha): 100,0%

CCCCOC(=O)c1ccccc1C(=O)OCCCC [Beispiel 113, Phthalsäuredibutylester]
Ansetzen der Achänen bei freier Bestäubung ([2]; Präparat 0,2 Masse%, 1,2 kg/ha): 61,5 | Prozentsatz der Sterilität ([2]; Präparat 0,2 Masse%, 1,2 kg/ha): 100,0%

CCCCOC(=O)c1ccccc1C(=O)OCCCC [Beispiel 74, Phthalsäuredibutylester]
Kornzahl der Ähre bei freier Bestäubung [3]: 42,5 | Kornzahl der Ähre im Isolator [3]: 0,0 | Prozentsatz der Sterilität [3]: 100,0% | Prozentsatz des Ansetzens der Körner bei freier Bestäubung [3]: 94,9%

CCOC(=O)c1ccccc1C(=O)OCC [Beispiel 109, Phthalsäurediäthylester]
Ansetzen der Achänen bei freier Bestäubung ([4]; Präparat 0,1 Masse%, 0,6 kg/ha): 82,5 | Prozentsatz der Sterilität ([4]; Präparat 0,1 Masse%, 0,6 kg/ha): 100,0%

COC(=O)C1CCC=CC1C (stereo not drawn) [Beispiel 112, 2-Methyl--3-zyklohexenkarbonsäuremethylester]
Ansetzen der Achänen bei freier Bestäubung [4, 8]: 85,0 | Prozentsatz der Sterilität [4, 8]: 100,0%

COC(=O)C1CCC=CC1C (stereo not drawn) [Beispiel 115, 2-Methyl--3-zyklohexenkarbonsäuremethylester]
Ansetzen der Achänen bei freier Bestäubung [2, 8]: 65,7 | Prozentsatz der Sterilität [2, 8]: 100,0%

CC1C=CCCC1C(=O)O (stereo not drawn) [Beispiel 110, Kaliumsalz der 2-Methyl-3-zyklohexenkarbonsäure]
Ansetzen der Achänen bei freier Bestäubung ([4]; Präparat 0,1 Masse%, 0,6 kg/ha): 85,5 | Prozentsatz der Sterilität ([4]; Präparat 0,1 Masse%, 0,6 kg/ha): 100,0%

CC1C=CCCC1C(=O)O (stereo not drawn) [Beispiel 111, Natriumsalz der. 2-Methyl-3-zyklohexen-karbonsäure]
Ansetzen der Achänen bei freier Bestäubung ([4]; Präparat 1,0 Masse%, 6,0 kg/ha): 85,0 | Prozentsatz der Sterilität ([4]; Präparat 1,0 Masse%, 6,0 kg/ha): 100,0%

CCCCCCOC(=O)c1ccccc1C(=O)OCCCCCC [Beispiel 35, Phthalsäuredihexylester]
Kornzahl der Ähre bei freier Bestäubung [1]: 33,6 | Kornzahl der Ähre im Isolator [1]: 0,0 | Prozentsatz der Sterilität [1]: 100,0% | Prozentsatz des Ansetzens der Körner bei freier Bestäubung [1]: 91,8%

CC1C=CCCC1C(=O)O (stereo not drawn) [Beispiel 105, Kaliumsalz der 2-Methyl-3-zyklohexenkarbonsäu-re]
Ansetzen der Achänen bei freier Bestäubung ([5]; Präparat 1,0 Masse%, 6,0 kg/ha): 85,0 | Prozentsatz der Sterilität ([5]; Präparat 1,0 Masse%, 6,0 kg/ha): 100,0%

CCCCOC(=O)c1ccccc1C(=O)OCCCC [Beispiel 103, Phthalsäuredibutylester]
Ansetzen der Achänen bei freier Bestäubung ([5]; Präparat 1,0 Masse%, 6,0 kg/ha): 82,3 | Prozentsatz der Sterilität ([5]; Präparat 1,0 Masse%, 6,0 kg/ha): 100,0%

CC1C=CCCC1C(=O)[O-].[K+] (stereo not drawn) [Beispiel 114, Kaliumsalz der 2-Methyl-3-zyklohexenkarbonsäure]
Ansetzen der Achänen bei freier Bestäubung ([2]; Präparat 0,1 Masse%, 0,6 kg/ha): 62,9 | Prozentsatz der Sterilität ([2]; Präparat 0,1 Masse%, 0,6 kg/ha): 100,0%

CC1C=CCCC1C(=O)O (stereo not drawn) [Beispiel 75, Kaliumsalz der 2-Methyl-3-zyklohexenkarbonsäure]
Kornzahl der Ähre bei freier Bestäubung [3]: 43,0 | Kornzahl der Ähre im Isolator [3]: 0,0 | Prozentsatz der Sterilität [3]: 100,0% | Prozentsatz des Ansetzens der Körner bei freier Bestäubung [3]: 95,0%

COC(=O)C1CCC=CC1C (stereo not drawn) [Beispiel 107, 2-Methyl-3-zyklo-hexenkarbonsäuremethylester]
Ansetzen der Achänen bei freier Bestäubung [5, 9]: 83,8 | Prozentsatz der Sterilität [5, 9]: 100,0%

CCCCOC(=O)c1ccccc1C(=O)OCCCC [Beispiel 108, Phthalsäuredibutylester]
Ansetzen der Achänen bei freier Bestäubung ([4]; Präparat 0,2 Masse%, 1,2 kg/ha): 83,5 | Prozentsatz der Sterilität ([4]; Präparat 0,2 Masse%, 1,2 kg/ha): 100,0%

CC1C=CCCC1C(=O)O (stereo not drawn) [Kaliumsalz der 2-Methyl-3-zyklohexenkarbonsäure]
LD50 [6]: 7660 mg/kg

CCCCOC(=O)c1ccccc1C(=O)OCCCC [Phthalsäuredibutylester]
LD50 [7]: 2840 mg/kg | LD50 ([6]; weiße Ratten, einmalige Einführung in den Magen (route printed for Phthalsäuredibutylester), read-out: LD50): 6670 mg/kg

CC(C)COC(=O)c1ccccc1C(=O)OCC(C)C [Beispiel 36, Phthalsäurediisobutylester]
Kornzahl der Ähre bei freier Bestäubung [1]: 31,7 | Kornzahl der Ähre im Isolator [1]: 0,0 | Prozentsatz der Sterilität [1]: 100,0% | Prozentsatz des Ansetzens der Körner bei freier Bestäubung [1]: 86,6%

CCOC(=O)c1ccccc1C(=O)OCC [Beispiel 104, Phthalsäurediäthylester]
Ansetzen der Achänen bei freier Bestäubung ([5]; Präparat 1,0 Masse%, 6,0 kg/ha): 80,0 | Prozentsatz der Sterilität ([5]; Präparat 1,0 Masse%, 6,0 kg/ha): 100,0%

CC1C=CCCC1C(=O)O (stereo not drawn) [Beispiel 106, Natriumsalz der 2-Methyl-3-zyklohexenkarbonsäure]
Ansetzen der Achänen bei freier Bestäubung ([5]; Präparat 1,0 Masse%, 6,0 kg/ha): 84,1 | Prozentsatz der Sterilität ([5]; Präparat 1,0 Masse%, 6,0 kg/ha): 100,0%
